The results in this text go back to patent publication US11584755B2 (IDEAYA BIOSCIENCES, INC., priority 2017, dated 2023).

Common to all, as to assay type: biochemical
The target in one assay is hFEN1 (Homo sapiens (Human), UniProt P39748). Briefly: Enzymatic IC50 assay, FAM-labeled DNA oligomer substrate, fluorescence intensity (FEN1). The following applies: hFEN1 70 pM, substrate 100 nM, reaction time 20 minutes, 23° C. The method, boiled down: (§1)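 FEN1, EXO1 or XPG was preincubated 15 min with compound, then the FAM-labelled DNA oligomer substrate was added in Tris-HCl pH 8.0 with 10 mM MgCl2 at 23° C. FEN1 was 70 pM with 100 nM substrate for 20 min, EXO1 6 nM with 30 nM for 60 min, and XPG 100 nM with 100 nM for 120 min. Reactions were EDTA-stopped and read by fluorescence intensity.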

For a further assay, the target named is hEXO1, Isoform1 (Homo sapiens (Human), UniProt Q9UQ84). Description: Enzymatic IC50 assay, FAM-labeled DNA oligomer substrate, fluorescence intensity (EXO1). The settings on record: hEXO1 6 nM, substrate 30 nM, reaction time 60 minutes, 23° C. The essentials:
as §1

The target of another assay is hXPG (Homo sapiens (Human), UniProt P28715). Description: Enzymatic IC50 assay, FAM-labeled DNA oligomer substrate, fluorescence intensity (XPG). The settings on record: hXPG 100 nM, substrate 100 nM, reaction time 120 minutes, 23° C. As to the method: FEN1, EXO1 or XPG enzyme was incubated with compound or vehicle (DMSO) and the FAM-labeled DNA oligomer substrate in a microtiter plate. The stop buffer contains EDTA to stop the enzymatic reaction. The plate is read for fluorescence intensity. The high control (DMSO) with high fluorescence intensity represents no inhibition of enzymatic reaction while the low control (10 μM) with low fluorescence intensity represents full inhibition of enzymatic reaction.
• FEN1 • hFEN1: 70 pM • Substrate: 100 nM • Reaction time: 20 minutes • EXO1 • hEXO1: 6 nM, Isoforml • Substrate: 30 nM • Reaction time: 60 minutes • XPG • hXPG: 100 nM • Substrate: 100 nM • Reaction time: 120 minutes
Annealing Buffer: 50 mM Tris-HCl, 50 mM NaCl, 1 mM DTT Assay buffer: 50 mM Tris-HCl pH 8.0, 10 mM MgCl2, 0.01% BSA, 1 mM DTT Stop buffer: 50 mM EDTA in assay buffer Temperature: 23° C. Total volume: 40 μl Controls: • 0% inhibition control: DMSO • 100% inhibition control: 10 μM (final) 5-chloro-3-hydroxy-1,3-dihydroquinazoline-2,4-dione Enzyme Reaction and Detection: • 1. Prepare 25 μM intermediate stock of the substrate by diluting SEQ ID NO:1, SEQ ID NO:2, and SEQ ID NO:3 in annealing buffer, in a PCR tube. • 2. Place the PCR tube on a heat block, heat at 95° C. for 3 minutes, then drop in 0.2° C. increments over 2 minutes, stopping at 25° C. • 3. Remove the tube and let the tube cool at room temperature. • 4. Transfer 10 μL of 3× final concentration test compounds or DMSO to the appropriate wells of a microtiter plate. • 5. Transfer 10 μL of 3× final concentration enzyme in assay buffer or assay buffer alone to the appropriate wells. • 6. Incubate the plate at room temperature for 15 minutes. • 7. Transfer 10 μL of 3× substrate in assay buffer to all the test wells. • 8. Incubate the plate at room temperature for prescribed reaction time. • 9. Centrifuge the plate at 1000 rpm for 1 minute. • 10. Transfer 10 μL of stop buffer to all the test wells. • 11. Centrifuge the plate at 1000 rpm for 1 minute. • 12. Read the plate on a plate reader.

hFEN1, sequence (P39748 whole entry): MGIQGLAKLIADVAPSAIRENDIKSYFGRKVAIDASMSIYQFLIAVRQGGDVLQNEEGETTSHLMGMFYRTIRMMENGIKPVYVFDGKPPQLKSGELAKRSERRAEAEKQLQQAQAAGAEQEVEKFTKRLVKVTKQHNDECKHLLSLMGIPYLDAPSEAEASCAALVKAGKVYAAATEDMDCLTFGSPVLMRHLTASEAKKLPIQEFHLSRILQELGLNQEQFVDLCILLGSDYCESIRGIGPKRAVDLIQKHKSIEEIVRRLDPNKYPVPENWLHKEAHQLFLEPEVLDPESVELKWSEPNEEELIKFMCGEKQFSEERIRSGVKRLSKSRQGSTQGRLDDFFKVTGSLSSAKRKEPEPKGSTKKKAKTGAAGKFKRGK
hXPG, sequence (P28715 whole entry, canonical isoform): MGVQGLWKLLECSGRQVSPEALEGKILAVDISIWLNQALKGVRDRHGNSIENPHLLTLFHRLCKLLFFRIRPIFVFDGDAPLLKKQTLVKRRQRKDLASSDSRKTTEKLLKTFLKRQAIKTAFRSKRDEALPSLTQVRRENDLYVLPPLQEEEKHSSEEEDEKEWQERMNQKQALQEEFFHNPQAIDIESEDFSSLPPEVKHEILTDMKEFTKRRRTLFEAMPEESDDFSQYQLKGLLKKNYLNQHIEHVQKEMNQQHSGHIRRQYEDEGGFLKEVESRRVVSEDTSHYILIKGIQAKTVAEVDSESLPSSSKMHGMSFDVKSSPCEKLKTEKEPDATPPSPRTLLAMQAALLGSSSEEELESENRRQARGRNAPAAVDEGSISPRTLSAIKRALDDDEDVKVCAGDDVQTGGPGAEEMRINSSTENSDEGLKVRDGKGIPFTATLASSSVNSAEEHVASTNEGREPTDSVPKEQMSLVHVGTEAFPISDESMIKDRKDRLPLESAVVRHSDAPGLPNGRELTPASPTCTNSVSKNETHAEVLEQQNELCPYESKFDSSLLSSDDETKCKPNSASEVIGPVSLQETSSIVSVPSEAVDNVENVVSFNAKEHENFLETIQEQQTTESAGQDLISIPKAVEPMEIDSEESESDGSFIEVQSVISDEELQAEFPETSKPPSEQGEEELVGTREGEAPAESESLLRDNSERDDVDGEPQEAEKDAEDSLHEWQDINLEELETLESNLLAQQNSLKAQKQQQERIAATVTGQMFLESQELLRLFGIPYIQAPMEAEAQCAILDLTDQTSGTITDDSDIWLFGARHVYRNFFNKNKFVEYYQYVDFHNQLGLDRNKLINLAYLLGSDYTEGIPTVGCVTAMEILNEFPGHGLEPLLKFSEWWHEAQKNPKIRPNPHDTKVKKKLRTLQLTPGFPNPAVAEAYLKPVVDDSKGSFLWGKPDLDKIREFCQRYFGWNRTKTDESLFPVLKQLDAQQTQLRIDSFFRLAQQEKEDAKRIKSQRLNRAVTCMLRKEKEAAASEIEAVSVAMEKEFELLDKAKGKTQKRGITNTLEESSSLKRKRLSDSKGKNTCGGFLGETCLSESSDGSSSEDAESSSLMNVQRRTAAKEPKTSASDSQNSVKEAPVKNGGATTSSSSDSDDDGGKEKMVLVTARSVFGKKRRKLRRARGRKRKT
hEXO1, Isoform1, sequence (Q9UQ84 whole entry, canonical isoform): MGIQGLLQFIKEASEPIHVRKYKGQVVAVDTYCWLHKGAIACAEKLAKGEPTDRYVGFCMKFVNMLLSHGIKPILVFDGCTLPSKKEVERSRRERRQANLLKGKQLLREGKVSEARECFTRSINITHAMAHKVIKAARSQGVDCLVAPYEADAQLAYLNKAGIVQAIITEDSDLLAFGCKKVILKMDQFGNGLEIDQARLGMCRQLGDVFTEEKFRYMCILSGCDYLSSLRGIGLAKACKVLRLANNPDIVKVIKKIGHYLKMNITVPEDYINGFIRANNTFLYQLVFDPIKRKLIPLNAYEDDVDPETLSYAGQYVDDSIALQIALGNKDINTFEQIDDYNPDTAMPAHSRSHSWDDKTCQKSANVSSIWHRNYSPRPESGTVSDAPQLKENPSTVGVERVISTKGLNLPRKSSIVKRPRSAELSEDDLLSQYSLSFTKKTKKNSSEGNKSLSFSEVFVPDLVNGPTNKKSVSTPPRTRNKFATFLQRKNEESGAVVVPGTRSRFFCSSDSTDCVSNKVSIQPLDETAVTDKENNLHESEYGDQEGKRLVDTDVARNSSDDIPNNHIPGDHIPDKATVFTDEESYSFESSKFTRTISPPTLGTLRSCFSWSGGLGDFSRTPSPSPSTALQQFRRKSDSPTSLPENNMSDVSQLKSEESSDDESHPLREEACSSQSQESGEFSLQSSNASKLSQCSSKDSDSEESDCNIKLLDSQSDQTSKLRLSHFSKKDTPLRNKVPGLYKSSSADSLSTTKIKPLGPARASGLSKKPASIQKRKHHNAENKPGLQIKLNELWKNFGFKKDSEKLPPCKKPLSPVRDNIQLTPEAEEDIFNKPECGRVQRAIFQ

`N#Cc1cccc(Cn2cc(Cn3c(=O)c(O)c(C(=O)O)c4sccc43)cn2)c1` [Example 128, 4-{[1-(3-cyanobenzyl)-1H-pyrazol-4-yl]methyl}-6-hydroxy-5-oxo-4,5-dihydrothieno[3,2-b]pyridine-7-carboxylic acid]: the IC50 (in general, the midpoint of a concentration-inhibition curve) at hFEN1 is under 200 nM; against hEXO1, Isoform1, 2250 to 10000 nM; against hXPG it was 2250 to 10000 nM.
On to `COc1ccc(Cn2c(=O)c(O)c(C(=O)O)c3sc(C4CC4)cc32)cc1` [Example 30, 2-cyclopropyl-6-hydroxy-4-(4-methoxybenzyl)-5-oxo-4,5-dihydrothieno[3,2-b]pyridine-7-carboxylic acid], for which the IC50 on hFEN1 is 750 to 2250 nM; at hEXO1, Isoform1 it was 250 to 750 nM; against hXPG, 2250 to 10000 nM.
For `CC(=O)Nc1cccc(Cn2c(=O)c(O)c(C(=O)O)c3sccc32)c1` [Example 7, 4-[(3-acetamidophenyl)methyl]-6-hydroxy-5-oxo-thieno[3,2-b]pyridine-7-carboxylic acid], in that order: under 200 nM, 750 to 2250 nM and 2250 to 10000 nM.
In the same order, the values of `O=C(O)c1c(O)c(=O)n(Cc2cnn(-c3ccccc3)c2)c2ccsc12` [Example 84, 6-hydroxy-5-oxo-4-[(1-phenyl-1H-pyrazol-4-yl)methyl]-4,5-dihydrothieno[3,2-b]pyridine-7-carboxylic acid] are under 200 nM, 250 to 750 nM and 250 to 750 nM.
For `O=C(O)c1c(O)c(=O)n(CC2CCOC2)c2ccsc12` (stereo not drawn) [Example 42, 6-hydroxy-5-oxo-4-((tetrahydrofuran-3-yl)methyl)-4,5-dihydrothieno[3,2-b]pyridine-7-carboxylic acid], in that order: 2250 to 10000 nM, 2250 to 10000 nM and 2250 to 10000 nM.
For the compound `O=C(O)c1c(O)c(=O)n(Cc2cnc[nH]2)c2ccsc12` [Example 75, 4-[(1H-imidazol-5-yl)methyl]-6-hydroxy-5-oxo-4,5-dihydrothieno[3,2-b]pyridine-7-carboxylic acid], the IC50 at hFEN1 was 750 to 2250 nM; at hEXO1, Isoform1 it was 2250 to 10000 nM; against hXPG, over 10000 nM.
In the same order, the values of `O=C(O)c1c(O)c(=O)n(Cc2cnn(Cc3ccnnc3)c2)c2ccsc12` [Example 132, 6-hydroxy-5-oxo-4-{[1-(pyridazin-4-ylmethyl)-1H-pyrazol-4-yl]methyl}-4,5-dihydrothieno[3,2-b]pyridine-7-carboxylic acid] are under 200 nM, 2250 to 10000 nM and 2250 to 10000 nM.
For `O=C(O)c1c(O)c(=O)n(Cc2cn(-c3ccc4c(c3)OCO4)nn2)c2ccsc12` [Example 148, 4-{[1-(benzo[d][1,3]dioxol-5-yl)-1H-1,2,3-triazol-4-yl]methyl}-6-hydroxy-5-oxo-4,5-dihydrothieno[3,2-b]pyridine-7-carboxylic acid], in that order: under 200 nM, 250 to 750 nM and 250 to 750 nM.
For `O=C(O)c1c(O)c(=O)n(Cc2ccc(Oc3ccccc3)cc2)c2ccsc12` [Example 81, 6-hydroxy-5-oxo-4-(4-phenoxybenzyl)-4,5-dihydrothieno[3,2-b]pyridine-7-carboxylic acid], in that order: 250 to 750 nM, 2250 to 10000 nM and 2250 to 10000 nM.
Regarding `O=C(O)c1c(O)c(=O)n(Cc2cnn(Cc3ccc4nonc4c3)c2)c2ccsc12` [Example 141, 4-{[1-(benzo[c][1,2,5]oxadiazol-5-ylmethyl)-1H-pyrazol-4-yl]methyl}-6-hydroxy-5-oxo-4,5-dihydrothieno[3,2-b]pyridine-7-carboxylic acid], the IC50 against hFEN1 was under 200 nM; on hEXO1, Isoform1 it was 750 to 2250 nM; against hXPG, 2250 to 10000 nM.
Consider `O=C(O)c1c(O)c(=O)n(Cc2cnn(Cc3cnc4ccccn34)c2)c2ccsc12` [Example 144, 6-hydroxy-4-{[1-(imidazo[1,2-a]pyridin-3-ylmethyl)-1H-pyrazol-4-yl]methyl}-5-oxo-4,5-dihydrothieno[3,2-b]pyridine-7-carboxylic acid], for which the IC50 on hFEN1 was under 200 nM; against hEXO1, Isoform1 it was 2250 to 10000 nM; against hXPG, over 10000 nM.
In the same order, the values of `O=C(O)c1c(O)c(=O)n(Cc2cnn(Cc3cccc4nonc34)c2)c2ccsc12` [Example 140, 4-{[1-(benzo[c][1,2,5]oxadiazol-4-ylmethyl)-1H-pyrazol-4-yl]methyl}-6-hydroxy-5-oxo-4,5-dihydrothieno[3,2-b]pyridine-7-carboxylic acid] are under 200 nM, 2250 to 10000 nM and 2250 to 10000 nM.
For `NC(=O)Cn1cc(Cn2c(=O)c(O)c(C(=O)O)c3sccc32)cn1` [Example 136, 4-{[1-(2-amino-2-oxoethyl)-1H-pyrazol-4-yl]methyl}-6-hydroxy-5-oxo-4,5-dihydrothieno[3,2-b]pyridine-7-carboxylic acid], in that order: under 200 nM, 2250 to 10000 nM and over 10000 nM.
In the same order, the values of `CS(=O)(=O)c1cccc(Cn2cc(Cn3c(=O)c(O)c(C(=O)O)c4sccc43)cn2)c1` [Example 131, 6-hydroxy-4-({1-[3-(methylsulfonyl)benzyl]-1H-pyrazol-4-yl}methyl)-5-oxo-4,5-dihydrothieno[3,2-b]pyridine-7-carboxylic acid] are under 200 nM, 2250 to 10000 nM and 2250 to 10000 nM.
As to `CS(=O)(=O)c1cccc(Cn2c(=O)c(O)c(C(=O)O)c3sccc32)c1` [Example 63, 6-hydroxy-4-[3-(methylsulfonyl)benzyl]-5-oxo-4,5-dihydrothieno[3,2-b]pyridine-7-carboxylic acid], the concentration for half-maximal inhibition (IC50) against hFEN1 is 750 to 2250 nM; on hEXO1, Isoform1, 2250 to 10000 nM; against hXPG, 2250 to 10000 nM.
`Cc1ncc(Cn2c(=O)c(O)c(C(=O)O)c3sccc32)s1` [Example 91, 6-hydroxy-4-[(2-methylthiazol-5-yl)methyl]-5-oxo-4,5-dihydrothieno[3,2-b]pyridine-7-carboxylic acid]: the IC50 is under 200 nM at hFEN1; 2250 to 10000 nM against hEXO1, Isoform1; 2250 to 10000 nM against hXPG.
As for `CC(=O)Nc1ccc(Cn2c(=O)c(O)c(C(=O)O)c3sccc32)cc1` [Example 40, 4-(4-acetamidobenzyl)-6-hydroxy-5-oxo-4,5-dihydrothieno[3,2-b]pyridine-7-carboxylic acid], the IC50 on hFEN1 was under 200 nM; on hEXO1, Isoform1, 2250 to 10000 nM; against hXPG it was 2250 to 10000 nM.
For `N#Cc1ccccc1-n1cc(Cn2c(=O)c(O)c(C(=O)O)c3sccc32)cn1` [Example 111, 4-{[1-(2-cyanophenyl)-1H-pyrazol-4-yl]methyl}-6-hydroxy-5-oxo-4,5-dihydrothieno[3,2-b]pyridine-7-carboxylic acid], the IC50 against hFEN1 is 250 to 750 nM; against hEXO1, Isoform1, 250 to 750 nM; against hXPG, 750 to 2250 nM.
Regarding `O=C(O)c1c(O)c(=O)n(Cc2cn(-c3ccccc3)nn2)c2ccsc12` [Example 18, 6-hydroxy-5-oxo-4-((1-phenyl-1H-1,2,3-triazol-4-yl)methyl)-4,5-dihydrothieno[3,2-b]pyridine-7-carboxylic acid], the IC50 on hFEN1 lay in the range of 250 to 750 nM; against hEXO1, Isoform1 it was 250 to 750 nM; at hXPG, 750 to 2250 nM.
Turning to `CS(=O)(=O)Nc1cccc(Cn2c(=O)c(O)c(C(=O)O)c3sccc32)c1` [Example 78, 6-hydroxy-4-[3-(methylsulfonamido)benzyl]-5-oxo-4,5-dihydrothieno[3,2-b]pyridine-7-carboxylic acid], the IC50 against hFEN1 lay in the range of 250 to 750 nM; against hEXO1, Isoform1 it was 750 to 2250 nM; on hXPG it was 2250 to 10000 nM.
For `CS(=O)(=O)Nc1ccc(-n2cc(Cn3c(=O)c(O)c(C(=O)O)c4sccc43)cn2)cc1` [Example 117, 6-hydroxy-4-({1-[4-(methylsulfonamido)phenyl]-1H-pyrazol-4-yl}methyl)-5-oxo-4,5-dihydrothieno[3,2-b]pyridine-7-carboxylic acid], in that order: under 200 nM, 250 to 750 nM and 250 to 750 nM.
